For this assay, the target named is T1, Aurora kinase A (AKA) (Homo sapiens, UniProt O14965).
T1 sequence (O14965 1-403): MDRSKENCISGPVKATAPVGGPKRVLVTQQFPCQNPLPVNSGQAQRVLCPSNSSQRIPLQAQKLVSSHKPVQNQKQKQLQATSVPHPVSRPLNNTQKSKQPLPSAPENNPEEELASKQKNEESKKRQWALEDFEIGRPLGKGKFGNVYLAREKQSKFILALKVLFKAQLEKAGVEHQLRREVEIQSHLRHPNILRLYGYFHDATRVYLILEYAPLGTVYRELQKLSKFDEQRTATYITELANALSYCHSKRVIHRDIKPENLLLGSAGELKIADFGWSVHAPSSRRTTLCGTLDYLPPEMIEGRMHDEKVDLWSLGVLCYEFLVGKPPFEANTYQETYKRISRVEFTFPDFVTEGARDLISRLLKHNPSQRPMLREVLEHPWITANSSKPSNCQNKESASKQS
As to the kind of experiment: kinase activity assay. It is filed as biochemical.

The values below come from publication PMC3523717 (Angewandte Chemie (International ed. in English), 2012).

By IC50 is commonly meant the point on the concentration scale where inhibition reaches its midpoint.

MLN8054-TCO [compound 13] showed an IC50 of 61.8 nM.
